# Measurements from patent publication US20050031652A1, “Compositions and methods comprising memantine and polyanionic polymers” (priority 2003, published 2005).
# Structures can show the parent of a compound that is named as a salt.
# How the values were obtained:
# Rabbits = assay: Five day toxicology study, topical dosing twice a day; assay type: in vivo, rabbit; details: CMC based versus borate buffered formulations
# Experimental: This study was followed up by a five day toxicology study which included borate buffered formulations ranging from 0.1 to 0.75% (w/v) memantine, CMC based formulations ranging from 0.1 to 1.0% (w/v) memantine and the relevant placebos. All formulations were preserved with 20 ppm BAK.
# The formulations were dosed with 35 μL drops topically to the cul-de-sac of rabbits twice a day for […]. The rabbits were evaluated by gross clinical observation of irritation, ranked as none, slight, mild, moderate or severe. The irritation score was a sum of lacrimation, chemosis, hyperemia and tolerability all scored from none to severe.
# in vivo = details: rabbit, po, 2 mg/kg
# Experimental: Tissue concentrations of memantine were determined after oral and topical dosing. Rabbits were dosed topically with 35 μl of a 0.1% (w/v) aqueous solution of radiolabeled memantine twice a day to both eyes for 7 days (equivalent to approximately 0.07 mg/kg/day). This composition is detailed in Table 1 as Composition 2. Another subset of rabbits was dosed orally with 2 mg/kg radiolabeled memantine for seven days. At the end of the dosing period ocular tissue concentrations were quantified.
# [1] = assumed for the calculation; cited from earlier work
# [2] = Retina levels after topical versus oral dosing over seven days (Example 9); details: albino, rabbit, in vivo, 1.76 mg/kg/day
# Experimental: Once a day topical dosing of 0.37% memantine HCl (w/v) borate buffered solution (0.242 mg/kg/day), was compared to daily oral dosing of memantine HCL, 1.76 mg/kg/day, in albino rabbits over seven days. […] Peak levels obtained by topical dosing far exceeded levels thought to be possible by oral dosing. […] Thus, topical dosing of this formulation is […].
# [3] = Autoradiography after topical ophthalmic instillation; assay type: in vivo, rabbit
# Experimental: General disposition of topical ophthalmic 1-amino-3,5-dimethyladamantane hydrochloride (memantine) instillation was assessed by autoradiography. Briefly, albino and pigmented rabbits were dosed via topical ophthalmic instillation with a 0.74% (w/v) aqueous isotonic memantine solution having a pH of 7.4. After dosing, autoradiographic sections of the eye were acquired at 0.25, 0.5, 1, and 2 and 24 hours post dosing.
# [4] = cited from earlier work
# [5] = Human oral clinical pharmacokinetic study; assay type: in vivo
# Experimental: Assuming a 31% protein binding and a retina-choroid concentration equivalent to the free-unbound plasma memantine concentration, the peak retinal level of memantine would be 0.30 μM.
smiles,measurement,setting,value
"CC12CC3CC(C)(C1)CC(N)(C3)C2 [memantine, 1-amino-3,5-dimethyladamantane hydrochloride]","improvement of tolerability, factor",Rabbits,5-8
same,concentration at 7 days,in vivo,0.107 µg/mL
same,protein binding,[1],31%
same,concentration at 7 days,[2],0.1 µg/mL
same,half-life in the posterior globe (qualitative),"[3]; albino and pigmented rabbits, topical 0.74% (w/v) solution",relatively long
same,binding to ocular melanin,"[3]; pigmented tissues, autoradiography intensity",binds to the ocular melanin
same,presence in posterior ocular tissues,"[3]; topical 0.74% (w/v) aqueous isotonic solution pH 7.4, albino and pigmented rabbits","present in the posterior sclera, choroid and/or retina"
same,dose limiting side effects,[4]; oral delivery,"dizziness, lightheadedness and slurred speech"
same,other adverse events associated with CNS excitation,[4]; oral dosages of 5 to 30 mg/day,"anxiety, dissociation, dry mouth, headache, nervousness, slurred speech, tiredness and weakness"
same,peak retinal level (calculated),"[5]; oral 20 mg per day, assuming 31% protein binding and retina-choroid equal to free plasma concentration",0.30 µM
same,mean plasma concentration,[5]; oral dose of 20 mg per day,0.095 µg/mL
